Assay results as given in patent US8445504B2, “Tricyclic pyrazolopyrimidine derivatives” (Daiichi Sankyo Company, Limited, priority 2009, dated 2013).

Columns and labels:
[1] = tested on: human lung cancer cell line NCI-H460; assay: Cell growth inhibition assay (MTT), NCI-H460; assay type: cell-based; conditions: NCI-H460, 72 hours
Description: (§1) A cell growth inhibition assay was performed using two types of cells (human breast cancer cell line SK-BR-3 and human lung cancer cell line NCI-H460).
(§2) Cells of each type were suspended in a medium and seeded into a 96-well multi-well plate at 2000 cells/150 μL/well in the case of SK-BR-3 and at 500 cells/150 μL/well in the case of NCI-H460. The test compound was dissolved in DMSO, and this was diluted with medium to prepare a sample solution (DMSO concentration: 0.5% or less). On the day following the seeding, 50 μL of DMSO-containing medium to which the test compound was not added (hereinafter called DMSO diluted solution; DMSO concentration: 0.5% or less) or 50 μL of the sample solution was further added to the cells. An MTT assay was performed immediately after and 72 hours after adding the sample solution or the DMSO diluted solution to the cells. The MTT assay was performed as follows.
(§3) 5 mg/mL of an MTT (3-(4,5-dimethylthiazol-2-yl)-2,5-diphenyltetrazolium bromide) solution was added at 20 μL per well. Thereafter, the plate was incubated at 37° C. in 5% CO2 for four hours. The plate was centrifuged at 1200 rpm for five minutes, and then the culture supernatant was removed by suction using a dispenser. DMSO was added at 150 μL per well, and the generated formazan was dissolved. The plate was stirred using a plate mixer to uniformly color the respective wells. The absorbance of each well was measured using a plate reader at an OD of 540 nm with a reference of 660 nm.
(§4) T/C (%) for each concentration was determined by the following calculation formula and a dose-response curve was drawn to calculate the 50% growth inhibitory concentration (GI50 value), based on the assumption that the OD value measured immediately after adding the sample solution was S, the OD value measured 72 hours after adding the sample solution was T, and the OD value measured 72 hours after adding the DMSO diluted solution was C. T/C (%)=(T−S)/(C−S)×100 The results are shown below.

[2] = tested on: human breast cancer cell line SK-BR-3; assay: Cell growth inhibition assay (MTT), SK-BR-3; assay type: cell-based; conditions: SK-BR-3, 72 hours
Description: as §1, §2, §3, §4

CYP3A4 = CYP3A4 (Homo sapiens, UniProt P08684); assay: in vitro; conditions: microsomes, pH 7.4
CYP3A4, sequence (P08684 whole entry): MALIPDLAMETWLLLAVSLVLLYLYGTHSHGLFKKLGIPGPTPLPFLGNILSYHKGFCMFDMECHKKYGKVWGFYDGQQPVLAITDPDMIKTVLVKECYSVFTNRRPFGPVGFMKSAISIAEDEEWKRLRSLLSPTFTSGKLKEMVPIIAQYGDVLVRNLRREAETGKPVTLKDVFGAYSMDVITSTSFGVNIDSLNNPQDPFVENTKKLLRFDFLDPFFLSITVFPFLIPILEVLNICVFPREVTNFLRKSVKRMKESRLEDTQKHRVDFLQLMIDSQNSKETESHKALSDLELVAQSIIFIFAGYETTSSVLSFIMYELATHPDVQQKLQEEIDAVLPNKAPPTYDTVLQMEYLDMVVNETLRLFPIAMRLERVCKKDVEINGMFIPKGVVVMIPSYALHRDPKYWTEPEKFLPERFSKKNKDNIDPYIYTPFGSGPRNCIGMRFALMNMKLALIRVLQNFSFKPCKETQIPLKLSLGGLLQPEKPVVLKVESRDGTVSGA
Description: Appropriate amounts of such test compound, substrate, target to be measured, and positive control were weighed. They were dissolved in DMSO, and were then diluted with acetonitrile, as appropriate.
180 μl of a reaction solution prepared by mixing the following (1) to (5) had previously been warmed at 37° C. for 10 minutes:
(1) Potassium phosphate buffer (pH 7.4; final concentration: 50 mM)
(3) Midazolam (final concentration: 2.5 μM)
(5) Human hepatic microsome (final concentration: 0.05 mg-P/ml)
20 μl of the NADPH Regeneration System (solution A/solution B/purified water=5/1/4) was added to this reaction solution, and the reaction was initiated. The mixture was incubated for 10 minutes. Thereafter, 50 μl of the reaction solution was sampled, and it was then added to 200 μl of acetonitrile, followed by the termination of the reaction. Further, 50 μl of an acetonitrile solution containing an internal standard substance was added to the reaction solution.
In order to remove proteins from this sample, the reaction solution was transferred to a 96-Well Collection Plate (Waters) using Captiva (registered trademark) (GL Sciences). This sample solution was defined as a sample used for the assay of LC-MS/MS.
Samples of 1′-Hydroxymidazolam having known concentrations (final concentrations: 0 to 5 μM; total 5 points) were prepared, separately. A calibration curve used for assay was prepared, and the concentration of 1′-Hydroxymidazolam in the sample was assayed. This reaction was carried out in a duplicated manner.
The amount of 1′-Hydroxymidazolam generated in the negative control was defined as 100%, and the ratio of the amount of this compound generated by addition of each compound was then calculated. Thus, the inhibition value of CYP3A4 was obtained.

[3] = biological target: T1, recombinant yeast Hsp90 protein (rHsp90) (Saccharomyces cerevisiae, UniProt P02829); assay: Hsp90 ATPase assay; assay type: biochemical; conditions: at a concentration of 2 μM; 100 μM ATP, 37° C., two hours; read-out: ATPase inhibitory activity
T1 construct: made in house; host or cells: Escherichia coli
T1 sequence (P02829 whole entry): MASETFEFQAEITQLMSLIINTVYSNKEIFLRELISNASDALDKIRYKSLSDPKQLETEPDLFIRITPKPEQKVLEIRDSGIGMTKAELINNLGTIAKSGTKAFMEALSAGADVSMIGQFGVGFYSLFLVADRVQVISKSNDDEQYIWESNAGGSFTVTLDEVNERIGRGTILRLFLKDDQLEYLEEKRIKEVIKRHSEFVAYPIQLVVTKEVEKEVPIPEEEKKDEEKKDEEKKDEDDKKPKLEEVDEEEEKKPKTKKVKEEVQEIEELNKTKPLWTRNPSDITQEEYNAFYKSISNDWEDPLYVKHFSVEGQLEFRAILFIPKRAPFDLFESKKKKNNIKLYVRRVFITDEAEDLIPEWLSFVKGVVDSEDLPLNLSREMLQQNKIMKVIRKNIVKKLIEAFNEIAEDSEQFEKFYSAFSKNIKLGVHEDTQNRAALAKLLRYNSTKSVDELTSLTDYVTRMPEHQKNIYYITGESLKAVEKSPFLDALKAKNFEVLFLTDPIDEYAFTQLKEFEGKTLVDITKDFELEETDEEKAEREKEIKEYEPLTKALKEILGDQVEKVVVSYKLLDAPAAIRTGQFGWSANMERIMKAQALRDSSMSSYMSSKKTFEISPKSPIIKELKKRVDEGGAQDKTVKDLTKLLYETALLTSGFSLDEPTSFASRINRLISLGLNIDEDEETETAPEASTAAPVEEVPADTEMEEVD
Description: An Hsp90 ATPase assay was performed using a recombinant yeast Hsp90 protein (hereinafter called rHsp90). Yeast Hsp90 DNA was cloned from a yeast genomic DNA library according to a conventional method. The cloned yeast Hsp90 DNA was incorporated into a plasmid for expression in Escherichia coli, and the plasmid was expressed in Escherichia coli to obtain rHsp90.
The test compound was dissolved in DMSO to 10 mM. The dissolved solution was diluted with DMSO to two concentrations, 1 mM and 0.2 mM. Each diluted solution was further 10-fold diluted with an assay buffer (100 mM Tris, pH 7.4, 20 mM KCl, 6 mM MgCl2) (concentration of each test compound solution: 100 μM and 20 μM; DMSO concentration: 10%).
rHsp90 was dissolved in a TE buffer (20 mM Tris, pH 7.4, 1 mM EDTA) to a concentration of 2.531 mg/mL. The solution was diluted with an assay buffer to 125 μg/mL and dispensed to a 96-well assay plate at 40 μL per well (final concentration: 100 μg/mL).
The test compound solution was dispensed at 5 μL per well, and then the solutions in the respective wells were mixed using a plate mixer. 100 mM ATP (Sigma, Catalog No. A-7699) was diluted with an assay buffer to 1 mM and dispensed at 5 μL per well (final concentration: 100 μM). The solutions in the respective wells were mixed using a plate mixer, and then the assay plate was allowed to stand in an incubator set at 37° C. for two hours.
BIOMOL GREEN Reagent (BIOMOL, Catalog No. AK-111) was dispensed at 100 μL per well, and the reaction was terminated. The solutions in the respective wells were mixed using a plate mixer, and then 34% sodium citrate was dispensed at 10 μL per well. The solutions in the respective wells were mixed using a plate mixer, and then the assay plate was left to stand at room temperature for 30 minutes. The absorbance at 650 nm of each well was measured using SpectramaxPLUS (Molecular Devices).
The ratio of the absorbance of the test compound-added group to the absorbance of the test compound-free group (T/C value) was determined by the following calculation formula, based on the assumption that the absorbance of the well to which the test compound and rHsp90 were added was A, the absorbance of the well to which only rHsp90 was added was B, and the absorbance of the well to which neither the test compound nor rHsp90 was added was C. The calculation was carried out using Softmax Pro 4.6 (Molecular Devices). Furthermore, an inhibition rate (%) was calculated using the following calculation formula: T/C=(A−C)/(B−C)

Structure (SMILES) | GI50 [1] | GI50 [2] | inhibition at 10 min, 10 μM (CYP3A4) | inhibition at 2 µM [3]
CNC(=O)CC1=Cc2nn(Cc3ncc(C)c(OC)c3Br)c3nc(N)nc(c23)SC1 [Compound 3, 2-{4-Amino-2-[(3-bromo-4-methoxy-5-methylpyridin-2-yl)methyl]-2,7-dihydro-6-thia-1,2,3,5-tetraazabenzo[cd]azulen-8-yl}-N-methylacetamide] | 30 nM | 14 nM | 5% | ≥ 50%
CNC(=O)CC1=Cc2nn(Cc3ncc(F)c(OC)c3C)c3nc(N)nc(c23)SC1 [Compound 2, 2-{4-Amino-2-[(5-fluoro-4-methoxy-3-methylpyridin-2-yl)methyl]-2,7-dihydro-6-thia-1,2,3,5-tetraazabenzo-[cd]azulen-8-yl}-N-methylacetamide] | 90 nM | 39 nM | 58% | ≥ 50%
COc1ccnc(Cn2nc3c4c(nc(N)nc42)SCC(C(=O)NCC(F)F)=C3)c1Cl [Compound 6, 4-Amino-2-[(3-chloro-4-methoxypyridin-2-yl)methyl]-N-(2,2-difluoroethyl)-2,7-dihydro-6-thia-1,2,3,5-tetraazabenzo[cd]azulen-8-carboxamide] | 110 nM | 45 nM | -18% | ≥ 50%
COc1c(C)cnc(Cn2nc3c4c(nc(N)nc42)SCC(CC(N)=O)=C3)c1Br [Compound 4, 2-{4-Amino-2-[(3-bromo-4-methoxy-5-methylpyridin-2-yl)methyl]-2,7-dihydro-6-thia-1,2,3,5-tetraazabenzo[cd]azulen-8-yl}acetamide mesilate] | 22 nM | 11 nM | 43% | ≥ 50%
COc1c(C)cnc(Cn2nc3c4c(nc(N)nc42)SCC(CC(=O)NCCF)=C3)c1Cl [Compound 5, 2-{4-Amino-2-[(3-chloro-4-methoxy-5-methylpyridin-2-yl)methyl]-2,7-dihydro-6-thia-1,2,3,5-tetraazabenzo[cd]azulen-8-yl}-N-(2-fluoroethyl)acetamide] | 36 nM | 16 nM | 66% | ≥ 50%
CNC(=O)CC1=Cc2nn(Cc3ncc(C)c(OC)c3Cl)c3nc(N)nc(c23)SC1 [Compound 1, 2-{4-Amino-2-[(3-chloro-4-methoxy-5-methylpyridin-2-yl)methyl]-2,7-dihydro-6-thia-1,2,3,5-tetraazabenzo[cd]azulen-8-yl}-N-methylacetamide] | 26 nM | 13 nM | 15% | ≥ 50%
